Test results as given in patent US20230085307A1, “PYRIDAZINONE COMPOUND AND HERBICIDE” (NISSAN CHEMICAL CORPORATION, priority 2019, published 2023).

What was measured:
southern crabgrass [1] = assay: Test Example 4: herbicidal effect by soil treatment (Table 19, symbol F); format: in vivo, southern crabgrass (Digitaria ciliaris); conditions: amount of applied herbicide 320 g/ha
How it was run: (§1)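 Pre-emergence style soil spray: seeds under ~1.5 cm sterilized diluvial soil received a uniform coat of emulsion diluted to the predetermined herbicide amount. Greenhouse 25–30° C; readout at week three on previously defined criteria.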

green foxtail [2] = assay: Test Example 4: herbicidal effect by soil treatment (Table 19, symbol G); format: in vivo, green foxtail (Setaria viridis); conditions: amount of applied herbicide 320 g/ha
How it was run: as §1

barnyard grass [3] = assay: Test Example 4: herbicidal effect by soil treatment (Table 19, symbol H); format: in vivo, barnyard grass (Echinochloa crus-galli); conditions: amount of applied herbicide 320 g/ha
How it was run: as §1

wild oat [4] = assay: Test Example 4: herbicidal effect by soil treatment (Table 19, symbol I); format: in vivo, wild oat (Avena fatua); conditions: amount of applied herbicide 320 g/ha
How it was run: as §1

blackgrass [5] = assay: Test Example 4: herbicidal effect by soil treatment (Table 19, symbol J); format: in vivo, blackgrass (Alopecurus myosuroides); conditions: amount of applied herbicide 320 g/ha
How it was run: as §1

Italian ryegrass [6] = assay: Test Example 4: herbicidal effect by soil treatment (Table 19, symbol K); format: in vivo, Italian ryegrass (Lolium multiflorum); conditions: amount of applied herbicide 320 g/ha
How it was run: as §1

windgrass [7] = assay: Test Example 4: herbicidal effect by soil treatment (Table 19, symbol L); format: in vivo, windgrass (Apera spica-venti); conditions: amount of applied herbicide 320 g/ha
How it was run: as §1

velvetleaf [8] = assay: Test Example 4: herbicidal effect by soil treatment (Table 19, symbol M); format: in vivo, velvetleaf (Abutilon theophrasti); conditions: amount of applied herbicide 320 g/ha
How it was run: as §1

redroot pigweed [9] = assay: Test Example 4: herbicidal effect by soil treatment (Table 19, symbol N); format: in vivo, redroot pigweed (Amaranthus retroflexus); conditions: amount of applied herbicide 320 g/ha
How it was run: as §1

lambsquarters [10] = assay: Test Example 4: herbicidal effect by soil treatment (Table 19, symbol O); format: in vivo, lambsquarters (Chenopodium album); conditions: amount of applied herbicide 320 g/ha
How it was run: as §1

chickweed [11] = assay: Test Example 4: herbicidal effect by soil treatment (Table 19, symbol P); format: in vivo, common chickweed (Stellaria media); conditions: amount of applied herbicide 320 g/ha
How it was run: as §1

persian speedwell [12] = assay: Test Example 4: herbicidal effect by soil treatment (Table 19, symbol R); format: in vivo, Persian speedwell (Veronica persica); conditions: amount of applied herbicide 320 g/ha
How it was run: as §1

southern crabgrass [13] = assay: Test Example 5: herbicidal effect by foliage application, plastic box (Table 20, symbol F); format: in vivo, southern crabgrass (Digitaria ciliaris); conditions: foliage application, 320 g/ha, evaluated three weeks after application
How it was run: (§2)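 Plants were sown into sterilized diluvial soil under about 1.5 cm cover and kept in a greenhouse at 25° C. to 30° C. Fourteen days on, foliage received an even spray of the diluted emulsion. Herbicidal or crop effect was judged three weeks afterwards.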

green foxtail [14] = assay: Test Example 5: herbicidal effect by foliage application, plastic box (Table 20, symbol G); format: in vivo, green foxtail (Setaria viridis); conditions: foliage application, 320 g/ha, evaluated three weeks after application
How it was run: as §2

barnyard grass [15] = assay: Test Example 5: herbicidal effect by foliage application, plastic box (Table 20, symbol H); format: in vivo, barnyard grass (Echinochloa crus-galli); conditions: foliage application, 320 g/ha, evaluated three weeks after application
How it was run: as §2

wild oat [16] = assay: Test Example 5: herbicidal effect by foliage application, plastic box (Table 20, symbol I); format: in vivo, wild oat (Avena fatua); conditions: foliage application, 320 g/ha, evaluated three weeks after application
How it was run: as §2

blackgrass [17] = assay: Test Example 5: herbicidal effect by foliage application, plastic box (Table 20, symbol J); format: in vivo, blackgrass (Alopecurus myosuroides); conditions: foliage application, 320 g/ha, evaluated three weeks after application
How it was run: as §2

Italian ryegrass [18] = assay: Test Example 5: herbicidal effect by foliage application, plastic box (Table 20, symbol K); format: in vivo, Italian ryegrass (Lolium multiflorum); conditions: foliage application, 320 g/ha, evaluated three weeks after application
How it was run: as §2

windgrass [19] = assay: Test Example 5: herbicidal effect by foliage application, plastic box (Table 20, symbol L); format: in vivo, windgrass (Apera spica-venti); conditions: foliage application, 320 g/ha, evaluated three weeks after application
How it was run: as §2

velvetleaf [20] = assay: Test Example 5: herbicidal effect by foliage application, plastic box (Table 20, symbol M); format: in vivo, velvetleaf (Abutilon theophrasti); conditions: foliage application, 320 g/ha, evaluated three weeks after application
How it was run: as §2

redroot pigweed [21] = assay: Test Example 5: herbicidal effect by foliage application, plastic box (Table 20, symbol N); format: in vivo, redroot pigweed (Amaranthus retroflexus); conditions: foliage application, 320 g/ha, evaluated three weeks after application
How it was run: as §2

lambsquarters [22] = assay: Test Example 5: herbicidal effect by foliage application, plastic box (Table 20, symbol O); format: in vivo, lambsquarters (Chenopodium album); conditions: foliage application, 320 g/ha, evaluated three weeks after application
How it was run: as §2

chickweed [23] = assay: Test Example 5: herbicidal effect by foliage application, plastic box (Table 20, symbol P); format: in vivo, common chickweed (Stellaria media); conditions: foliage application, 320 g/ha, evaluated three weeks after application
How it was run: as §2

persian speedwell [24] = assay: Test Example 5: herbicidal effect by foliage application, plastic box (Table 20, symbol R); format: in vivo, Persian speedwell (Veronica persica); conditions: foliage application, 320 g/ha, evaluated three weeks after application
How it was run: as §2

COc1ccc(-c2sc3ccc(C)cc3c2-c2c(O)c(C)nn(C)c2=O)cc1 [2-140]
F: southern crabgrass, herbicidal effect rating (southern crabgrass [1]): 0 (Herbicidal rate of 5% or less (almost no effect)) | G: green foxtail, herbicidal effect rating (green foxtail [2]): 0 (Herbicidal rate of 5% or less (almost no effect)) | H: barnyard grass, herbicidal effect rating (barnyard grass [3]): 0 (Herbicidal rate of 5% or less (almost no effect)) | I: wild oat, herbicidal effect rating (wild oat [4]): 0 (Herbicidal rate of 5% or less (almost no effect)) | J: blackgrass, herbicidal effect rating (blackgrass [5]): 0 (Herbicidal rate of 5% or less (almost no effect)) | K: Italian ryegrass, herbicidal effect rating (Italian ryegrass [6]): 0 (Herbicidal rate of 5% or less (almost no effect)) | L: windgrass, herbicidal effect rating (windgrass [7]): 0 (Herbicidal rate of 5% or less (almost no effect)) | M: velvetleaf, herbicidal effect rating (velvetleaf [8]): 3 (Herbicidal rate of 40% or more and less than 70%) | N: redroot pigweed, herbicidal effect rating (redroot pigweed [9]): 2 (Herbicidal rate of 20% or more and less than 40%) | O: lambsquarters, herbicidal effect rating (lambsquarters [10]): 0 (Herbicidal rate of 5% or less (almost no effect)) | P: chickweed, herbicidal effect rating (chickweed [11]): 0 (Herbicidal rate of 5% or less (almost no effect)) | R: persian speedwell, herbicidal effect rating (persian speedwell [12]): 3 (Herbicidal rate of 40% or more and less than 70%) | herbicidal effect on F: southern crabgrass (southern crabgrass [13]): 0 (Herbicidal rate of 5% or less (almost no effect)) | herbicidal effect on G: green foxtail (green foxtail [14]): 0 (Herbicidal rate of 5% or less (almost no effect)) | herbicidal effect on H: barnyard grass (barnyard grass [15]): 0 (Herbicidal rate of 5% or less (almost no effect)) | herbicidal effect on I: wild oat (wild oat [16]): 0 (Herbicidal rate of 5% or less (almost no effect)) | herbicidal effect on J: blackgrass (blackgrass [17]): 0 (Herbicidal rate of 5% or less (almost no effect)) | herbicidal effect on K: Italian ryegrass (Italian ryegrass [18]): 0 (Herbicidal rate of 5% or less (almost no effect)) | herbicidal effect on L: windgrass (windgrass [19]): 0 (Herbicidal rate of 5% or less (almost no effect)) | herbicidal effect on M: velvetleaf (velvetleaf [20]): 4 (Herbicidal rate of 70% or more and less than 90%) | herbicidal effect on N: redroot pigweed (redroot pigweed [21]): 3 (Herbicidal rate of 40% or more and less than 70%) | herbicidal effect on O: lambsquarters (lambsquarters [22]): 3 (Herbicidal rate of 40% or more and less than 70%) | herbicidal effect on P: chickweed (chickweed [23]): 4 (Herbicidal rate of 70% or more and less than 90%) | herbicidal effect on R: persian speedwell (persian speedwell [24]): 5 (Herbicidal rate of 90% or more (almost completely withered))
